Laboratory results published in patent publication US9029359B2, “Heteroaryl Btk inhibitors” (Biogen Idec MA, Inc., priority 2009, dated 2015).

Target: T1, BTK (Homo sapiens, UniProt Q06187)
T1 construct: purchased Upstate 14-552
Assay: In vitro BTK kinase assay: BTK-POLYGAT-LS ASSAY
Assay type: biochemical
Conditions: ATP 10 uM
Experimental: In vitro BTK kinase assay: BTK-POLYGAT-LS ASSAY. The purpose of the BTK in vitro assay is to determine compound potency against BTK through the measurement of IC50. […] A 24 μL aliquot of a ATP/peptide master mix (final concentration; ATP 10 μM, polyGAT 100 nM) in kinase buffer (10 mM Tris-HCl pH 7.5, 10 mM MgCl2, 200 μM Na3VO4, 5 mM DTT, 0.01% Triton X-100, and 0.2 mg/ml Casein) is added to each well. […] The assay is incubated for 30 minutes before being stopped with 28 μL of a 50 mM EDTA solution. […] The plate is covered and incubated for 45 minutes at room temperature. Time resolved fluorescence (TRF) on Molecular Devices M5 (332 nm excitation; 488 nm emission; 518 nm fluorescein emission) is measured.

T1 sequence (Q06187 whole entry): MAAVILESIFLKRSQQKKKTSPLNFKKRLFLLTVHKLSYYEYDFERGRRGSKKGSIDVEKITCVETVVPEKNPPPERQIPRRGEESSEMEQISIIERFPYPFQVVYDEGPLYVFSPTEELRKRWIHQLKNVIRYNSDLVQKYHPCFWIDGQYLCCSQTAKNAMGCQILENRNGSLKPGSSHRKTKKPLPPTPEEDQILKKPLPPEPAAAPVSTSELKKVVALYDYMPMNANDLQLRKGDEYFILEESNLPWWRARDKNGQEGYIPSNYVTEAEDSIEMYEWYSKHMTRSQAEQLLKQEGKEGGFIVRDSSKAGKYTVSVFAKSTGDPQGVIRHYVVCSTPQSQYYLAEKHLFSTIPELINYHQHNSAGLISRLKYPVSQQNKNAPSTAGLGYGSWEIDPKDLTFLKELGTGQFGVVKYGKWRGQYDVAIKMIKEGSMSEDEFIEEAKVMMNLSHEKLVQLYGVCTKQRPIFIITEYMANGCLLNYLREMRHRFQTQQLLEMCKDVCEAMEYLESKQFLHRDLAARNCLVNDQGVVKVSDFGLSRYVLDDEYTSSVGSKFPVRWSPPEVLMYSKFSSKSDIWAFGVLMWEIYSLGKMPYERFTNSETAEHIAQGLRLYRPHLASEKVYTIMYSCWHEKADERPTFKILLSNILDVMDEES

Row | SMILES | IC50
1 | N#Cc1c(N)ncnc1N1CCC[C@@H](NC(=O)[C@H](Nc2cc(F)cc(Cl)c2)C2CC2)C1 [Example 134, (R)—N—((R)-1-(6-amino-5-cyanopyrimidin-4-yl)piperidin-3-yl)-2-(3-chloro-5-fluorophenylamino)-2-cyclopropylacetamide] | 1000 to 10000 nM
2 | O=C(CNC(=O)Nc1ccccc1)NC1CCCN(c2ncnc3[nH]ccc23)C1 (stereo not shown) [Example 2, (N-(1-(7H-pyrrolo[2,3-d]pyrimidin-4-yl)piperidin-3-yl)-2-(3-phenylureido)acetamide)] | 100 to 999 nM
3 | CN(C(C)(C)C)S(=O)(=O)c1ccccc1NCC(=O)N[C@@H]1CCCN(c2ncnc3[nH]ncc23)C1 [Example 368] | 100 to 999 nM
4 | O=C(CNc1cccc2ccccc12)NC1CCCN(c2ncnc3[nH]ccc23)C1 (stereo not shown) [Example 46, (N-(1-(7H-pyrrolo[2,3-d]pyrimidin-4-yl)piperidin-3-yl)-2-(naphthalen-1-ylamino)acetamide)] | < 100 nM
5 | O=C(CNc1cccc(-c2cccs2)c1)N[C@@H]1CCCN(c2ncnc3[nH]ccc23)C1 [Example 305] | 100 to 999 nM
6 | N#Cc1ccccc1NCC(=O)NC1CCCN(c2ncnc3[nH]ccc23)C1 (stereo not shown) [Example 66, (N-(1-(7H-pyrrolo[2,3-d]pyrimidin-4-yl)piperidin-3-yl)-2-(2-cyanophenylamino)acetamide)] | 1000 to 10000 nM
7 | O=C(CNc1ccccc1S(=O)(=O)N1CCCCC1)N[C@@H]1CCCN(c2ncnc3[nH]ncc23)C1 [Example 183] | < 100 nM
8 | O=C(CNc1cccc(Br)c1)NC1CCCN(c2ncnc3[nH]ccc23)C1 (stereo not shown) [Example 40, (N-(1-(7H-pyrrolo[2,3-d]pyrimidin-4-yl)piperidin-3-yl)-2-(3-bromophenylamino)acetamide)] | < 100 nM
9 | CC(C)c1ccc(NCC(=O)N[C@@H]2CCCN(c3ncnc4[nH]ccc34)C2)cc1 [Example 443] | 1000 to 10000 nM
10 | CC(C)Oc1cccc(NCC(=O)N[C@@H]2CCCN(c3ncnc4[nH]ccc34)C2)c1 [Example 315] | 100 to 999 nM
11 | C[C@@H](Nc1cc(F)cc(Cl)c1)C(=O)N[C@@H]1CCCN(c2ncnc3[nH]ncc23)C1 [Example 185] | < 100 nM
12 | C[C@@H](Nc1ccccc1)C(=O)NC1CCCN(c2ncnc3[nH]ccc23)C1 (stereo partly drawn) [Example 101, (2R)—N-(1-(7H-pyrrolo[2,3-d]pyrimidin-4-yl)piperidin-3-yl)-2-(phenylamino)propanamide] | 100 to 999 nM
13 | CC1CCCC(C)N1S(=O)(=O)c1ccccc1NCC(=O)N[C@@H]1CCCN(c2ncnc3[nH]ncc23)C1 (stereo partly shown) [Example 229] | < 100 nM
14 | O=C(CNc1ccccc1)N(Cc1ccccc1)C1CCCN(c2ncnc3[nH]ccc23)C1 (stereo not shown) [Example 86, (N-(1-(7H-pyrrolo[2,3-d]pyrimidin-4-yl)piperidin-3-yl)-N-benzyl-2-(phenylamino)acetamide)] | 1000 to 10000 nM
15 | Cc1cc(NCC(=O)NC2CCCN(c3ncnc4[nH]ccc34)C2)on1 (stereo not shown) [Example 350] | > 10000 nM
16 | O=C(N[C@@H]1CCCN(c2ncnc3[nH]ccc23)C1)[C@@H](CC1CC1)Nc1cc(Cl)cc(Cl)c1 [Example 132, (R)—N—((R)-1-(7H-pyrrolo[2,3-d]pyrimidin-4-yl)piperidin-3-yl)-3-cyclopropyl-2-(3,5-dichlorophenylamino)propanamide] | 100 to 999 nM
17 | O=C(CNc1ccccc1)N(CCc1ccccc1)C1CCCN(c2ncnc3[nH]ccc23)C1 (stereo not shown) [Example 87, (N-(1-(7H-pyrrolo[2,3-d]pyrimidin-4-yl)piperidin-3-yl)-N-phenethyl-2-(phenylamino)acetamide)] | 100 to 999 nM
18 | CC[C@@H](Nc1ccccc1C(C)C)C(=O)N[C@@H]1CCCN(c2ncnc3[nH]ncc23)C1 [Example 294] | 100 to 999 nM
19 | CCOc1ccccc1NCC(=O)N[C@@H]1CCCN(c2ncnc3[nH]ccc23)C1 [Example 310] | 100 to 999 nM
20 | C[C@H]1CCN(c2ncnc3[nH]ncc23)C[C@@H]1NC(=O)CNc1ccccc1S(=O)(=O)N1CCCCC1 [Example 366] | < 100 nM
21 | NS(=O)(=O)c1cccc(NCC(=O)NC2CCCN(c3ncnc4[nH]ccc34)C2)c1 (stereo not shown) [Example 26, (N-(1-(7H-pyrrolo[2,3-d]pyrimidin-4-yl)piperidin-3-yl)-2-(3-sulfamoylphenylamino)acetamide)] | > 10000 nM
22 | O=C(CNc1cccc2c1CCC2)NC1CCCN(c2ncnc3[nH]ccc23)C1 (stereo not shown) [Example 45, (N-(1-(7H-pyrrolo[2,3-d]pyrimidin-4-yl)piperidin-3-yl)-2-(2,3-dihydro-1H-inden-4-ylamino)acetamide)] | < 100 nM
23 | Cc1cc(NCC(=O)NC2CCCN(c3ncnc4[nH]ccc34)C2)n(C)n1 (stereo not shown) [Example 347] | > 10000 nM
24 | O=C(CNc1ccc(Cl)cc1)NC1CCCN(c2ncnc3[nH]ccc23)C1 (stereo not shown) [Example 22, (N-(1-(7H-pyrrolo[2,3-d]pyrimidin-4-yl)piperidin-3-yl)-2-(4-chlorophenylamino)acetamide)] | 100 to 999 nM
25 | CNc1cc(N2CCC[C@@H](NC(=O)CNc3cc(Cl)cc(Cl)c3)C2)ncn1 [Example 144, (R)-2-(3,5-dichlorophenylamino)-N-(1-(6-(methylamino)pyrimidin-4-yl)piperidin-3-yl)acetamide] | 100 to 999 nM
26 | COc1cccc(C)c1NCC(=O)N[C@@H]1CCCN(c2ncnc3[nH]ccc23)C1 [Example 452] | 1000 to 10000 nM
27 | O=C(CNc1cc(Cl)cc(OC(F)(F)F)c1)N[C@@H]1CCCN(c2ncnc3[nH]ccc23)C1 [Example 383] | < 100 nM
28 | O=C(COc1ccccc1)NC1CCCN(c2ncnc3[nH]ccc23)C1 (stereo not shown) [Example 8, (N-(1-(7H-pyrrolo[2,3-d]pyrimidin-4-yl)piperidin-3-yl)-2-phenoxyacetamide)] | 1000 to 10000 nM

Row | SMILES | IC50
29 | O=C(CNc1c(F)cccc1F)N[C@@H]1CCCN(c2ncnc3[nH]ccc23)C1 [Example 321] | 100 to 999 nM
30 | O=C(CNc1ccccc1S(=O)(=O)c1ccccc1)N[C@@H]1CCCN(c2ncnc3[nH]ccc23)C1 [Example 173] | < 100 nM
31 | N#Cc1c(F)cccc1NCC(=O)N[C@@H]1CCCN(c2ncnc3[nH]ccc23)C1 [Example 409] | 1000 to 10000 nM
32 | CCNc1cc(N2CCC[C@@H](NC(=O)CNc3cc(Cl)cc(Cl)c3)C2)ncn1 [Example 143, (R)-2-(3,5-dichlorophenylamino)-N-(1-(6-(ethylamino)pyrimidin-4-yl)piperidin-3-yl)acetamide] | 1000 to 10000 nM
33 | O=C(O)CC[C@@H](Nc1ccccc1)C(=O)N[C@@H]1CCCN(c2ncnc3[nH]ccc23)C1 [Example 425] | 1000 to 10000 nM
34 | N#Cc1ccc(NCC(=O)NC2CCCN(c3ncnc4[nH]ccc34)C2)cc1C(F)(F)F (stereo not shown) [Example 73, (N-(1-(7H-pyrrolo[2,3-d]pyrimidin-4-yl)piperidin-3-yl)-2-(4-cyano-3-(trifluoromethyl)phenylamino)acetamide)] | > 10000 nM
35 | Cc1c(NCC(=O)NC2CCCN(c3ncnc4[nH]ccc34)C2)cccc1C(F)(F)F (stereo not shown) [Example 64, (N-(1-(7H-pyrrolo[2,3-d]pyrimidin-4-yl)piperidin-3-yl)-2-(2-methyl-3-(trifluoromethyl)phenylamino)acetamide)] | 100 to 999 nM
36 | O=C(CNc1ccc(F)c(F)c1F)N[C@@H]1CCCN(c2ncnc3[nH]ccc23)C1 [Example 445] | 100 to 999 nM
37 | CC(O)c1cccc(NCC(=O)NC2CCCN(c3ncnc4[nH]ccc34)C2)c1 (stereo not shown) [Example 341] | > 10000 nM
38 | CN(C(=O)CNc1ccccc1)C1CCCN(c2ncnc3[nH]ccc23)C1 (stereo not shown) [Example 223] | 100 to 999 nM
39 | C[C@H](O)[C@@H](Nc1cc(F)cc(Cl)c1)C(=O)N[C@@H]1CCCN(c2ncnc3[nH]ncc23)C1 [Example 174] | < 100 nM
40 | O=C(CNc1cccc2nccn12)NC1CCCN(c2ncnc3[nH]ccc23)C1 (stereo not shown) [Example 328] | > 10000 nM
41 | O=C(CNc1cc(F)cc(C(F)(F)F)c1)N[C@@H]1CCCN(c2ncnc3[nH]ccc23)C1 [Example 264] | < 100 nM
42 | O=C(CNc1cc(C(F)(F)F)ccc1F)N[C@@H]1CCCN(c2ncnc3[nH]ccc23)C1 [Example 437] | 1000 to 10000 nM
43 | O=C(CNc1cccc(Cl)c1)N[C@@H]1CCCN(c2ncnc3[nH]ncc23)C1 [Example 247] | < 100 nM
44 | CC(=O)Nc1cccc(NCC(=O)NC2CCCN(c3ncnc4[nH]ccc34)C2)c1 (stereo not shown) [Example 358] | > 10000 nM
45 | O=C(CNc1ccccc1OCC(F)(F)F)N[C@@H]1CCCN(c2ncnc3[nH]ccc23)C1 [Example 277] | 100 to 999 nM
46 | N#Cc1c(N)ncnc1N1CCCC(NC(=O)CNc2ccccc2)C1 (stereo not shown) [Example 463] | > 10000 nM
47 | Cc1cccc(NCC(=O)N[C@@H]2CCCN(c3ncnc4[nH]ccc34)C2)c1C [Example 292] | 100 to 999 nM
48 | Cc1c(F)cccc1NCC(=O)N[C@@H]1CCCN(c2ncnc3[nH]ccc23)C1 [Example 267] | 100 to 999 nM
49 | O=C(CNc1cccc(OC2CCCC2)c1)N[C@@H]1CCCN(c2ncnc3[nH]ccc23)C1 [Example 281] | 100 to 999 nM
50 | O=C(CNc1ccccc1S(=O)(=O)N1CCCC1)N[C@@H]1CCCN(c2ncnc3[nH]ccc23)C1 [Example 203] | < 100 nM
51 | O=C(CNc1cccc2cnccc12)NC1CCCN(c2ncnc3[nH]ccc23)C1 (stereo not shown) [Example 333] | 1000 to 10000 nM
52 | O=C(CNc1cccc2c1CCCC2)N[C@@H]1CCCN(c2ncnc3[nH]ccc23)C1 [Example 254] | < 100 nM
53 | O=C(CNc1cccc(O)c1)N[C@@H]1CCCN(c2ncnc3[nH]ccc23)C1 [Example 401] | 1000 to 10000 nM
54 | O=C(CNC(=O)c1cccc(Cl)c1)NC1CCCN(c2ncnc3[nH]ccc23)C1 (stereo not shown) [Example 93, (N-(2-(1-(7H-pyrrolo[2,3-d]pyrimidin-4-yl)piperidin-3-ylamino)-2-oxoethyl)-3-chlorobenzamide)] | 1000 to 10000 nM
55 | CN(C)Cc1cccc(NCC(=O)NC2CCCN(c3ncnc4[nH]ccc34)C2)c1 (stereo not shown) [Example 345] | > 10000 nM
